The record followed here is US20170349540A1, “HISTONE DEACETYLASE INHIBITORS” (The General Hospital Corporation, priority 2014, published 2017).

The test system of one data set is HDAC. Nature of the data set: In vivo PET imaging: blocking of whole brain uptake of the radiolabeled compound of Example 3. Further details: species or system rat. As to the method:
Male Sprague-Dawley rats were utilized in pairs, anesthetized with inhalational isoflurane (Forane) at 3% in a carrier of 1.5-2 L/min medical oxygen and maintained at 2% isoflurane for the duration of the scan. The rats were arranged head-to-head in a Triumph Trimodality PET/CT/SPECT scanner (Gamma Medica, Northridge, Calif.). Rats were injected standard references or vehicle via a lateral tail vein catheterization at the start of Positron Emission Tomography (PET) acquisition. Dynamic PET acquisition lasted for 60 min and was followed by computed tomography (CT) for anatomic co-registration. PET data were reconstructed using a 3D-MLEM method resulting in a full width at half-maximum resolution of 1 mm. Reconstructed images were exported from the scanner in DICOM format along with an anatomic CT for rodent studies. These files were imported to PMOD (PMOD Technologies, Ltd.) and manually coregistered using six degrees of freedom.
Volumes of interest (VOIs) were drawn manually as spheres in brain regions guided by high resolution CT structural images and summed PET data, with a radius no less than 1 mm to minimize partial volume effects. Time-activity curves (TACs) were exported in terms of decay corrected activity per unit volume at specified time points with gradually increasing intervals. The TACs were expressed as percent injected dose per unit volume for analysis.
Summed PET images following injection with the ^11C radiolabeled (E)-3-(4-((((1r,3R,5S)-adamantan-1-ylmethyl)(methyl)amino)methyl)phenyl)-N-hydroxyacrylamide (Example 3) at baseline or after 5 minutes pretreatment with 0.5 or 2.0 mg/kg unlabeled (E)-3-(4-((((1 r,3R,5 S)-adamantan-1-ylmethyl) (methyl)amino)methyl)phenyl)-N-hydroxyacrylamide illustrate brain uptake and self-blocking, as shown in FIG. 1A. Whole-brain tracer uptake levels, normalized to uptake at 10 min, were altered by 10-40% in self-blocking experiments with 5 min pretreatment with 1.0 μg-2.0 mg/kg unlabeled (E)-3-(4-((((1r,3R,5S)-adamantan-1-ylmethyl) (methyl)amino)methyl)phenyl)-N-hydroxyacrylamide, as shown in FIGS. 1B and 1C. This quantification provides a means to measure occupancy of HDAC targets on the basis of blocked binding of the radiolabeled compound of Example 3.
Whole brain uptake of the radiotracer of Example 3 was measured 4 h after acute systemic treatment.

In a further data set the test system is rats. Nature of the data set: Open field activity test. The conditions noted are these: 20-fold higher doses relative to the FST tests (0.5 and 2.0 mg/kg i.p.), relative to vehicle-treated controls. Format: in vivo, rat. As to the method: Behavioral testing was applied to a cohort of 12 rats. Following 7 days of daily i.p. treatment with i) vehicle (10% DMSO, 10% Tween 80, 80% saline; 2 mL/kg); or solubilized ii) the compound of Example 2 (0.025 mg/kg) or iii) the compound of Example 2 (0.1 mg/kg), rats were exposed to the modified forced swim test (FST). Briefly, FST exposure (15 min exposure, 25° C. tap water, 30 cm water depth) was performed 18-24 h after the previous i.p. treatment, after which rats were returned to their home cages to dry for approximately 2-3 h, then given daily i.p. treatment as before. FST testing was performed one day later (5 min test, 25° C. tap water, 30 cm water depth) with behaviors digitally recorded for subsequent analysis of immobility by a trained reviewer, blinded to treatment groups. Rats were returned to home cages and monitored without treatment for 72 h. Rats were then treated for 7 additional days with i) vehicle, ii) the compound of Example 2 (0.5 mg/kg) or iii) the compound of Example 2 (2.0 mg/kg) via daily i.p. injection; treatment assignments for each rat remained the same with a 20× increase in dose of the compound of Example 2. Animals were then evaluated for locomotor activity in an open field (60 cm square) using automated tracking software (MedAssociates). […]

Take `CN(Cc1ccc(/C=C/C(=O)Nc2ccccc2N)cc1)CC12CC3CC(CC(C3)C1)C2` [Example 2, (E)-3-(4-((((3r,5r,7r)-adamantan-1-ylmethyl)(methyl)amino)methyl)phenyl)-N-(2-aminophenyl)acrylamide]: in the data set with HDAC (0.1 mg/kg (lowest tested dosage), 4 h after acute systemic treatment, radiotracer of Example 3, relative to vehicle-blocked baseline), the “block of whole brain tracer uptake” value came out at 25%. Besides, the “HDAC occupancy in the brain” value in the data set with HDAC (0.1 mg/kg i.p., based on PET imaging experiments) is on record as ~25%. Further, the “tracer uptake returning to baseline by (time post treatment)” value in the data set with HDAC (0.1 mg/kg, radiotracer of Example 3) is reported as ≤ 7.5 h. In addition, in the data set with rats, the “effect in locomotor activity (open field)” value is listed as “no confounding effect in locomotor activity”.
